System: Mycosphaerella graminicola
Assay: Mycosphaerella graminicola (Septoria tritici) / liquid culture (Septoria blotch)
Assay type: cell-based
Details: Zymoseptoria tritici, 96 h, photometrically 4-5 days after application, read-out: control of Mycosphaerella graminicola
Experimental: Example B19: Mycosphaerella graminicola (Septoria tritici)/Liquid Culture (Septoria Blotch) Conidia of the fungus from cryogenic storage are directly mixed into a nutrient broth (potato dextrose broth). After placing a DMSO solution of test compound into a microtiter plate (96-well format), the nutrient broth containing the fungal spores is added. The test plates are incubated at 24° C. and the inhibition of growth is determined photometrically 4-5 days after application.

Row | Compound | inhibition of growth at 20 ppm
1 | COc1ccc2c(c1)[C@@H](c1cnn(C)c1)CN(C(=O)c1cc(-c3ccc(F)cc3F)on1)[C@@H]2C (racemic) [Compound P-217, [5-(2,4-difluorophenyl)isoxazol-3-yl]-[rac-(1R,4S)-6-methoxy-1-methyl-4-(1-methylpyrazol-4-yl)-3,4-dihydro-1H-isoquinolin-2-yl]methanone] | ≥ 80%
2 | Cc1c([C@H]2CN(C(=O)c3cc(-c4ccc(F)cc4F)on3)[C@@H](C)c3ccccc32)cnn1C (racemic) [Compound P-242, [5-(2,4-difluorophenyl)isoxazol-3-yl]-[rac-(1S,4S)-4-(1,5-dimethylpyrazol-4-yl)-1-methyl-3,4-dihydro-1H-isoquinolin-2-yl]methanone] | ≥ 80%
3 | C[C@H]1c2ccc(O)cc2[C@@H](c2cnn(C)c2)CN1C(=O)c1cc(-c2ccc(F)cc2F)on1 (racemic) [Compound P-245, [5-(2,4-difluorophenyl)isoxazol-3-yl]-[rac-(1S,4S)-6-hydroxy-1-methyl-4-(1-methylpyrazol-4-yl)-3,4-dihydro-1H-isoquinolin-2-yl]methanone] | ≥ 80%
4 | C[C@@H]1c2ccccc2[C@](C)(c2cnn(C)c2)CN1C(=O)c1cc(-c2ccc(F)cc2F)on1 (single isomer, unassigned) [Compound P-7] | ≥ 80%
5 | Cn1cc(C2CN(C(=O)c3cc(-c4ccc(S(C)(=O)=O)cc4F)on3)Cc3ccccc32)cn1 (centres unmarked) [Compound P-20, [5-(2-fluoro-4-methylsulfonyl-phenyl)isoxazol-3-yl]-[4-(1-methylpyrazol-4-yl)-3,4-dihydro-1H-isoquinolin-2-yl]methanone] | ≥ 80%
6 | Cn1cc(C2CN(C(=O)c3cc(-c4ccc(F)cc4F)on3)Cc3cc(-c4ccccc4)ccc32)cn1 (centres unmarked) [Compound P-21, [5-(2,4-difluorophenyl)isoxazol-3-yl]-[4-(1-methylpyrazol-4-yl)-7-phenyl-3,4-dihydro-1H-isoquinolin-2-yl]methanone] | ≥ 80%
7 | CC1c2ccc(OCC(F)(F)F)cc2C(C)(c2cnn(C)c2)CN1C(=O)c1cc(-c2ccccc2)on1 (centres unmarked) [Compound P-27, [1,4-dimethyl-4-(1-methylpyrazol-4-yl)-6-(2,2,2-trifluoroethoxy)-1,3-dihydroisoquinolin-2-yl]-(5-phenylisoxazol-3-yl)methanone] | ≥ 80%
8 | CC1c2ccc(OC(F)F)cc2C(C)(c2cnn(C)c2)CN1C(=O)c1cc(-c2ccccc2)on1 (centres unmarked) [Compound P-28, [6-(difluoromethoxy)-1,4-dimethyl-4-(1-methylpyrazol-4-yl)-1,3-dihydroisoquinolin-2-yl]-(5-phenylisoxazol-3-yl)methanone] | ≥ 80%
9 | CC1c2ccc(O)cc2C(C)(c2cnn(C)c2)CN1C(=O)c1cc(-c2ccccc2)on1 (centres unmarked) [Compound P-29, [6-hydroxy-1,4-dimethyl-4-(1-methylpyrazol-4-yl)-1,3-dihydroisoquinolin-2-yl]-(5-phenylisoxazol-3-yl)methanone] | ≥ 80%
10 | CCC1c2ccccc2C(c2cnn(C)c2)CN1C(=O)c1cc(-c2ccccc2)on1 (centres unmarked) [Compound P-37, [1-ethyl-4-(1-methylpyrazol-4-yl)-3,4-dihydro-1H-isoquinolin-2-yl]-(5-phenylisoxazol-3-yl)methanone] | ≥ 80%
11 | COC(=O)C1c2ccccc2C(c2cnn(C)c2)CN1C(=O)c1cc(-c2ccccc2)on1 (centres unmarked) [Compound P-41, methyl 4-(1-methylpyrazol-4-yl)-2-(5-phenylisoxazole-3-carbonyl)-3,4-dihydro-1H-isoquinoline-1-carboxylate] | ≥ 80%
12 | Cn1cc(C2CN(C(=O)c3cc(-c4ccc(F)cc4F)on3)C(c3ccccc3)c3ccccc32)cn1 (centres unmarked) [Compound P-43, [5-(2,4-difluorophenyl)isoxazol-3-yl]-[4-(1-methylpyrazol-4-yl)-1-phenyl-3,4-dihydro-1H-isoquinolin-2-yl]methanone] | ≥ 80%
13 | CCCC1c2ccccc2C(c2cnn(C)c2)CN1C(=O)c1cc(-c2ccc(F)cc2F)on1 (centres unmarked) [Compound P-59, [5-(2,4-difluorophenyl)isoxazol-3-yl]-[4-(1-methylpyrazol-4-yl)-1-propyl-3,4-dihydro-1H-isoquinolin-2-yl]methanone] | ≥ 80%
14 | COC(=O)c1ccc2c(c1)C(c1cnn(C)c1)CN(C(=O)c1cc(-c3ccc(F)cc3F)on1)C2 (centres unmarked) [Compound P-61, methyl 2-[5-(2,4-difluorophenyl)isoxazole-3-carbonyl]-4-(1-methylpyrazol-4-yl)-3,4-dihydro-1H-isoquinoline-6-carboxylate] | ≥ 80%
15 | COc1ccc2c(c1)C(c1cnn(C)c1)CN(C(=O)c1cc(-c3ccc(F)cc3F)on1)C2 (centres unmarked) [Compound P-66, [5-(2,4-difluorophenyl)isoxazol-3-yl]-[6-methoxy-4-(1-methylpyrazol-4-yl)-3,4-dihydro-1H-isoquinolin-2-yl]methanone] | ≥ 80%
16 | Cn1cc(C2CN(C(=O)c3ncc(C4CC4)o3)Cc3ccccc32)cn1 (centres unmarked) [Compound P-68, (5-cyclopropyloxazol-2-yl)-[4-(1-methylpyrazol-4-yl)-3,4-dihydro-1H-isoquinolin-2-yl]methanone] | ≥ 80%

Row | Compound | inhibition of growth at 20 ppm
17 | Cn1cc(C2CN(C(=O)c3coc(-c4ccc(F)cc4)n3)Cc3ccccc32)cn1 (centres unmarked) [Compound P-69, [2-(4-fluorophenyl)oxazol-4-yl]-[4-(1-methylpyrazol-4-yl)-3,4-dihydro-1H-isoquinolin-2-yl]methanone] | ≥ 80%
18 | Cn1cc(C2CN(C(=O)c3cc(C(C)(C)C)no3)Cc3ccccc32)cn1 (centres unmarked) [Compound P-83, (3-tert-butylisoxazol-5-yl)-[4-(1-methylpyrazol-4-yl)-3,4-dihydro-1H-isoquinolin-2-yl]methanone] | ≥ 80%
19 | CCCc1cc(C(=O)N2Cc3ccccc3C(c3cnn(C)c3)C2)no1 (centres unmarked) [Compound P-84, [4-(1-methylpyrazol-4-yl)-3,4-dihydro-1H-isoquinolin-2-yl]-(5-propylisoxazol-3-yl)methanone] | ≥ 80%
20 | CCC(C)c1cc(C(=O)N2Cc3ccccc3C(c3cnn(C)c3)C2)on1 (centres unmarked) [Compound P-88, [4-(1-methylpyrazol-4-yl)-3,4-dihydro-1H-isoquinolin-2-yl]-(3-sec-butylisoxazol-5-yl)methanone] | ≥ 80%
21 | Cn1cc(C2CN(C(=O)c3noc(-c4cc(F)ccc4F)n3)Cc3ccccc32)cn1 (centres unmarked) [Compound P-90, [5-(2,5-difluorophenyl)-1,2,4-oxadiazol-3-yl]-[4-(1-methylpyrazol-4-yl)-3,4-dihydro-1H-isoquinolin-2-yl]methanone] | ≥ 80%
22 | Cn1cc(C2CN(C(=O)c3cc(-c4ccccc4)on3)Cc3cc(C(F)(F)F)ccc32)cn1 (centres unmarked) [Compound P-103, [4-(1-methylpyrazol-4-yl)-7-(trifluoromethyl)-3,4-dihydro-1H-isoquinolin-2-yl]-(5-phenylisoxazol-3-yl)methanone] | ≥ 80%
23 | Cn1cc(C2CN(C(=O)c3cc(-c4ccc(F)cc4F)on3)Cc3ccc(C(F)(F)F)cc32)cn1 (centres unmarked) [Compound P-112, [5-(2,4-difluorophenyl)isoxazol-3-yl]-[4-(1-methylpyrazol-4-yl)-6-(trifluoromethyl)-3,4-dihydro-1H-isoquinolin-2-yl]methanone] | ≥ 80%
24 | Cc1nn(C)c(C)c1C1c2ccccc2CN(C(=O)c2cc(-c3ccc(F)cc3F)on2)C1C (centres unmarked) [Compound P-113, [5-(2,4-difluorophenyl)isoxazol-3-yl]-[3-methyl-4-(1,3,5-trimethylpyrazol-4-yl)-3,4-dihydro-1H-isoquinolin-2-yl]methanone] | ≥ 80%
25 | CCn1nc(C)c(C2CN(C(=O)c3cc(-c4ccc(F)cc4F)on3)Cc3ccccc32)c1C (centres unmarked) [Compound P-116, [5-(2,4-difluorophenyl)isoxazol-3-yl]-[4-(1-ethyl-3,5-dimethyl-pyrazol-4-yl)-3,4-dihydro-1H-isoquinolin-2-yl]methanone] | ≥ 80%
26 | C#CCn1cc(C2CN(C(=O)c3cc(-c4ccccc4)on3)Cc3ccccc32)cn1 (centres unmarked) [Compound P-128, (5-phenylisoxazol-3-yl)-[4-(1-prop-2-ynylpyrazol-4-yl)-3,4-dihydro-1H-isoquinolin-2-yl]methanone] | ≥ 80%
27 | Cn1cc(C2CN(C(=O)c3cc(-c4c(F)cc(F)cc4F)no3)Cc3ccccc32)cn1 (centres unmarked) [Compound P-129, [4-(1-methylpyrazol-4-yl)-3,4-dihydro-1H-isoquinolin-2-yl]-[3-(2,4,6-trifluorophenyl)isoxazol-5-yl]methanone] | ≥ 80%
28 | Cn1cc(C2CN(C(=O)c3cc(-c4ccc(F)c(F)c4F)on3)Cc3ccccc32)cn1 (centres unmarked) [Compound P-144, [4-(1-methylpyrazol-4-yl)-3,4-dihydro-1H-isoquinolin-2-yl]-[5-(2,3,4-trifluorophenyl)isoxazol-3-yl]methanone] | ≥ 80%
29 | Cn1cc(C2CN(C(=O)c3coc(-c4ccccc4)c3)Cc3ccccc32)cn1 (centres unmarked) [Compound P-147, [4-(1-methylpyrazol-4-yl)-3,4-dihydro-1H-isoquinolin-2-yl]-(5-phenyl-3-furyl)methanone] | ≥ 80%
30 | Cn1cc(C2CN(C(=O)c3cc(-c4cccc(F)c4F)on3)Cc3ccccc32)cn1 (centres unmarked) [Compound P-150, [5-(2,3-difluorophenyl)isoxazol-3-yl]-[4-(1-methylpyrazol-4-yl)-3,4-dihydro-1H-isoquinolin-2-yl]methanone] | ≥ 80%
31 | Cn1cc(C2CN(C(=O)c3cc(-c4ccccc4)ns3)Cc3ccccc32)cn1 (centres unmarked) [Compound P-161, [4-(1-methylpyrazol-4-yl)-3,4-dihydro-1H-isoquinolin-2-yl]-(3-phenylisothiazol-5-yl)methanone] | ≥ 80%
32 | COc1cccc(-c2cc(C(=O)N3Cc4ccccc4C(c4cnn(C)c4)C3)no2)c1 (centres unmarked) [Compound P-167, [5-(3-methoxyphenyl)isoxazol-3-yl]-[4-(1-methylpyrazol-4-yl)-3,4-dihydro-1H-isoquinolin-2-yl]methanone] | ≥ 80%
